We go through three substances from patent US10160785B2, “Antimicrobial peptides and their use for the treatment of topical infections” (priority 2015, dated 2018).

Some results are limits rather than exact numbers.

For data set [1], the system named is Bacillus subtilis. The settings on record: Bacillus subtilis; 37° C., 20 h. The essentials:
(§1)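 Exponential-phase bacteria diluted in fresh medium, ca 10^5 CFU per well, with peptides in LB at final 0.1–100 μmol.l^−1 (twofold dilutions).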

Data set [2] relates to Candida albicans Olomouc. The settings on record: Candida albicans Olomouc; YPD medium; 37° C., 20 h (Example 2).
For data set [3], the system named is Enterococcus faecalis Motol. The settings on record: BHI medium, 37° C., 20 h.
Data set [4] concerns Escherichia coli. To be noted: 37° C., 20 h. In outline:
as §1

Data set [5] deals with Methicillin resistant Staphylococcus aureus (MRSA) 6271. To be noted: 37° C., 20 h. In outline: as §1
Data set [6] concerns Pseudomonas aeruginosa 5482. To be noted: 37° C., 20 h. The essentials:
as §1

Data set [7] concerns Pseudomonas aeruginosa Liberec. The settings on record: Pseudomonas aeruginosa Liberec; 37° C., 20 h. In outline:
as §1

Data set [8] deals with Staphylococcus aureus Liberec. To be noted: Staphylococcus aureus Liberec clinical isolate; 37° C., 20 h. The essentials: as §1
The test system of data set [9] is Staphylococcus aureus Motol. The settings on record: Staphylococcus aureus Motol clinical isolate; 37° C., 20 h. In outline:
as §1

For data set [10], the system named is Staphylococcus epidermidis Motol. The settings on record: 37° C., 20 h. In outline:
as §1

The subject of data set [11] is human red blood cells. The experiment in a line: in vitro. In outline: (§2)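 Peptides at 2-200 μmol.l^−1 incubated 1 h at 37 °C with 5% v/v human erythrocyte suspension in physiological solution. Released haemoglobin in supernatant read at 540 nm against buffer (0%) and 0.2% Triton X100 (100%) lysis controls. LC50 is the peptide concentration lysing 50% of cells.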
The test system of data set [12] is S. aureus (Liberec) biofilm. Put plainly: Bacterial biofilm, remaining metabolic activity (MTT). The data set is classed as cell-based, Staphylococcus aureus. The settings on record: remaining metabolic activity of biofilm, 20 h. On the procedure: Inoculum of S. aureus (Liberec) or P. aeruginosa (Liberec) cultivated overnight in BHI medium was diluted with fresh BHI medium containing 1% glucose to a final concentration to be ca. 10^8 CFU/ml. Then this was pipetted (100 μl) to 96-multiwell polystyrene plate which was incubated at 37° C. under rotary shaking (300 RPM) for 24 h. Medium without bacteria in the wells was used as a negative control. Supernatant from each well was drained and the biofilm formed on the bottom and on the walls of the wells was cautiously washed three times by sterile physiological solution (300 μl). The peptides tested in the concentrations of 1-128 μmol.l^−1 were prepared by twofold serial dilution of their stock solution (1 mmol.l^−1) in fresh BHI medium and then pipetted (100 μl) to the wells with formed biofilms. The biofilms covered by BHI medium without peptide were used as a positive control. The plates were then incubated for 20 h as described above. After that the liquid was drained out and wells were washed twice with sterile physiological solution.
The metabolic activity of surviving bacterial cells in the biofilm was determined by staining with MTT (3-(4,5-dimethylthiazol-2-yl)-2,5-diphenyl-2H-tetrazolium bromide) as follows: The mixture of BHI medium (100 μl) and 10 μl of the stock solution of MTT (5 mg/ml in physiological solution) was added to each well and the plate was incubated 40 min at 37° C. The liquid was drained out and the insoluble formazan crystals formed by reduction inside the biofilm were dissolved with dimethyl sulphoxide (100 μl). The intensity of staining in each well was measured as absorbance at 540 nm on a Tecan Infinite M200 Pro reader (Tecan GmbH, Austria). Remaining activity of surviving cells inside the biofilm was expressed for each well in percentage according to the following equation:
[formula] where A is the absorbance of the tested compound, ABL is the absorbance of the negative control, and AC is the absorbance of control biofilm.

Data set [13] concerns Micrococcus luteus. To be noted: Micrococcus luteus; 37° C., 20 h. The essentials: as §1
Data set [14] can be described thus: in vitro. The settings on record: human. The essentials:
as §2

Data set [15] has as its system Candida albicans (Olomouc). The experiment in a line: microbe, parasite or virus in culture. It is filed as cell-based. To be noted: RPMI broth microdilution, 35° C., 48 hours, visual. The essentials:
(§3)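 Broth microdilution in RPMI 1640 with 0.165 mol.l^−1 MOPS; peptide dilutions of 0.625–160 μmol.l^−1 were added to wells, then inoculum at 5×10^2–2.5×10^3 CFU/ml final. Plates were incubated unshaken at 35 °C. MIC was read visually at 48 h as the lowest concentration without visible growth.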
For orientation: Broth dilution looks for growth in wells or tubes with falling amounts of substance.

Data set [16] deals with Candida albicans ATCC MYA-2876. Put plainly: microbe, parasite or virus in culture. The data set is classed as cell-based. The settings on record: RPMI broth microdilution, 35° C., 48 hours, visual. The essentials:
as §3

For data set [17], the system named is Candida dubliniensis ATCC MYA-646. Put plainly: microbe, parasite or virus in culture. The data set is classed as cell-based. The settings on record: RPMI broth microdilution, 35° C., 48 hours, visual. In outline: as §3
The subject of data set [18] is Candida glabrata ATCC 2001. Put plainly: microbe, parasite or virus in culture. It is filed as cell-based. To be noted: RPMI broth microdilution, 35° C., 48 hours, visual. The essentials: as §3
The subject of data set [19] is Candida glabrata DSY 565. Put plainly: microbe, parasite or virus in culture. The settings on record: RPMI broth microdilution, 35° C., 48 hours, visual. The data set is classed as cell-based. In outline:
as §3

The test system of data set [20] is Candida krusei ATCC 6258. The experiment in a line: microbe, parasite or virus in culture. The data set is classed as cell-based. To be noted: RPMI broth microdilution, 35° C., 48 hours, visual. The essentials: as §3
Data set [21] concerns Candida tropicalis ATCC 750. The experiment in a line: microbe, parasite or virus in culture. It is filed as cell-based. The settings on record: RPMI broth microdilution, 35° C., 48 hours, visual. In outline:
as §3

Data set [22] concerns P. aeruginosa (Liberec). Put plainly: Synergistic effect of peptides with antibiotics, FIC index. It is filed as cell-based, Pseudomonas aeruginosa. The settings on record: FIC <0.5 synergism, 0.5-2 additive, >2 antagonism, averages of three experiments. The essentials:
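Checkerboard MICs of two-fold serial dilutions of peptide plus antibiotic, same broth method as single-agent MICs. FIC index is the sum of each agent's MIC in combination divided by its MIC alone. <0.5 = synergy, 0.5–2 = additive, >2 = antagonism.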

The subject of data set [23] is S. aureus (Liberec). Described as above. It is filed as cell-based, Staphylococcus aureus. The settings on record: peptide combined with amoxicillin; FIC <0.5 synergism, 0.5-2 additive, >2 antagonism; averages of three experiments. On the procedure:
MICs values of various combinations of two fold serial dilutions of peptides and antibiotics were determined using the same methodology as in the case of antimicrobial activity determination (Example 2). To consider the type of the final effect, FIC indexes (fractional inhibitory concentration) were used and calculated as follows:
[formula] where MICPC and MICAC are the MICs of the peptide and antibiotic in combination, respectively, and MICP and MICA are the MICs of the peptide and antibiotic tested alone, respectively. FIC<0.5 were considered as synergy, 0.5≤FIC≤2 as addition effect, and FIC>2 as antagonism.

Consider “H-Gly-Ile-Leu-Ser-Ser-Leu-Trp-Lys-Lys-Leu-Lys-Lys-Ile-Ile-Ala-Lys-NH2 (H-GILSSLWKKLKKIIAK-NH2; also: D-amino acids (positions not given here)) [XIX]”, for which the “Antimicrobial activity MIC B. s.” value in data set [1] is 2.0 µM. Besides, the “Antimicrobial activity MIC C. a. Olomouc” value in data set [2] is 26.0 µM. Besides, the “Antimicrobial activity MIC E. f. Motol” value in [3] was found to be 6.5 µM. Moreover, the “Antimicrobial activity MIC E. c.” value in data set [4] stood at 13.0 µM. Besides, the “Antimicrobial activity MIC S. a. 6271” value in data set [5] was determined as 6.3 µM. Besides, the “Antimicrobial activity MIC P. a. 5482” value in data set [6] was 6.3 µM. Also, in data set [7], the “Antimicrobial activity MIC P. a. Liberec” value was 8.5 µM. Further, the “Antimicrobial activity MIC S. a. Liberec” value in [8] came to 3.2 µM. Moreover, in data set [9], the “Antimicrobial activity MIC S. a. Motol” value amounted to 3.2 µM. In addition, the “Antimicrobial activity MIC S. e. Motol” value in [10] was 1.6 µM. The CC50 in data set [11] (read-out: Hemolytic activity LC50, lysis of 50% of human erythrocytes, 1 h at 37° C.) was more than 200 µM. Moreover, the “Metabolic activity (%) S. aureus (Liberec)” value came to 72.8% in data set [12] (peptide concentration 8 μmol · l^−1); 2.8% in data set [12] (peptide concentration 16 μmol · l^−1); 2.3% in data set [12] (peptide concentration 32 μmol · l^−1); 2.3% in data set [12] (peptide concentration 64 μmol · l^−1); 1.7% in data set [12] (peptide concentration 128 μmol · l^−1).
As for “H-GIMSSLMKKLAAHIAK-NH2 [hylanine, reference compound]”, the “toxicity against eukaryotic cells measured as hemolytic activity” value in data set [11] (in words) is on record as “very low”.
Regarding H-GILSSWLKKLKKIIAK-NH2 [XV], the “Antimicrobial activity MIC B. s.” value in data set [1] came to 1.6 µM. Besides, the “Antimicrobial activity MIC C. a. Olomouc” value in data set [2] turned out to be 16.7 µM. Further, in [3], the “Antimicrobial activity MIC E. f. Motol” value was 73.3 µM. Further, the “Antimicrobial activity MIC E. c.” value in data set [4] worked out at 11.0 µM. Also, the “Antimicrobial activity MIC S. a. 6271” value in [5] came to 16.0 µM. For the same substance, the “Antimicrobial activity MIC M. l.” value in data set [13] is 1.6 µM. In data set [6], the “Antimicrobial activity MIC P. a. 5482” value came out at 4.0 µM. Besides, the “Antimicrobial activity MIC P. a. Liberec” value in data set [7] was 5.9 µM. Moreover, the “Antimicrobial activity MIC S. a. Liberec” value in [8] was found to be 6.6 µM. Further, in [9], the “Antimicrobial activity MIC S. a. Motol” value came to 16.2 µM. For the same substance, the “Antimicrobial activity MIC S. e. Motol” value in data set [10] stood at 2.0 µM. The substance further returned an HC50 at 1 h in [14] of more than 400 µM. In data set [15], the “Antifungal activity MIC C. albicans Olomouc” value is 21.0 µM. Moreover, in data set [16], the “Antifungal activity MIC C. albicans ATCC MYA-2876” value is 17.0 µM. For the same substance, the “Antifungal activity MIC C. dubliniensis ATCC MYA-646” value in [17] is 22.0 µM. Also, the “Antifungal activity MIC C. glabrata ATCC 2001” value in data set [18] is 40.0 µM. In addition, the “Antifungal activity MIC C. glabrata DSY 565” value in data set [19] was 88.9 µM. In addition, the “Antifungal activity MIC C. krusei ATCC 6258” value in data set [20] was 8.0 µM. The “Antifungal activity MIC C. tropicalis ATCC 750” value in [21] turned out to be 1.2 µM. Also, the “FIC indexes (fractional inhibitory concentration) Combination with RIF against P. aeruginosa” value in data set [22] (peptide combined with rifampicin) was 0.396. Besides, the “FIC indexes (fractional inhibitory concentration) Combination with TET against P. aeruginosa” value in data set [22] (peptide combined with tetracycline) turned out to be 0.646. Further, the “FIC indexes (fractional inhibitory concentration) Combination with AMX against S. aureus” value in data set [23] came to 0.375.
